Experimental data reported in US11479552B2, “Substituted piperidine compounds and their use” (Eisai R&D Management Co., Ltd., priority 2020, dated 2022).

Experiments:
[1] = system: C57BL/6 line wild type (WT) male mice; assay: Test Example 3: Wake-promoting effect by oral administration to wild type mice (EEG/EMG); type: in vivo
Method: The experimental animals used were C57BL/6 line wild type (WT) male mice. Electroencephalogram and electromyogram measuring electrodes were surgically embedded into 13-week-old mice under isoflurane anesthesia. The solvent (0 mg/kg) or a solution of the compound of Example 1 dissolved in the solvent (1, 3 or 10 mg/kg) was orally administered 30 to 15 minutes before lighting was turned off. The solvent used was a 0.1 moL/L hydrochloric acid solution containing 5% (v/v) DMSO and 5% (v/v) Kolliphor™ EL. The electroencephalogram and electromyogram were recorded for about 24 hours, from 1 hour before lighting was turned off. The mice were repeatedly used, with a washout period of 2 days or longer. The electroencephalogram and electromyogram data obtained for each mouse were used to assess the sleep stage every epoch (10 seconds), using sleep analysis software (SleepSign: Kissei Comtec Co., Ltd.). […] Using 16 mice in each administered group, the sleep onset latency in a solvent-administered group (control group) and an Example 1 compound-administered group were compared by a Dunnet-type multiple comparison test following survival time analysis in consideration of the number of experiments and use of the same individuals, with a significance level of 5% at both ends for each.

Male C57BL/6NCrl mice = assay: Test Example 2: Increase in spontaneous movement; type: in vivo; conditions: orally administered 10 mg/kg, measured 2 hours after administration, control group as 100%
Method: Similar to increase in body temperature or increase in cardiovascular parameters such as blood pressure, increased movement in mice is one of indicator for wakefulness. In this test example, the alertness effect was evaluated by measuring spontaneous movement of the mice. Male C57BL/6NCrl mice (18-19 weeks old, Charles River Laboratories, Japan Inc., 4 mice in each group) were used for the experiment. Spontaneous movement was measured by using a movement measuring device (VersaMax Oven Field, AccuScan Instruments, Inc.), irradiating infrared rays from the side sections of the measuring cage, and quantifying the number of times that the mice passed through the irradiation. After placing the mice in the measuring cage and conditioning for 3 hours, the compound was orally administered (10 mg/kg). Spontaneous movement was measured 2 hours after administration. The test compound-administered group was administered a solution of the test compound dissolved in 0.1 moL/L hydrochloric acid containing 5% (v/v) DMSO and 5% (v/v) Kolliphor™ EL. For the control group, solvent alone without the test compound was administered to the mice.
Spontaneous movement was represented as a percentage for the test compound-administered group, with spontaneous movement in the control group as 100%.

hOX2R = hOX2R (Homo sapiens (Human), UniProt O43614); assay: Test Example 1-2: Evaluation of activating activity for OX2R (calcium flux, HEK293 with forced expression); type: cell-based; conditions: HEK293 cells expressing hOX2R; intracellular calcium; 30 nM OX-A as 100%; up to 1×10^−5 M
Method: (§1) Human Embryonic Kidney cells 293 (HEK293) cells with forced expression of hOX1R or hOX2R were seeded in a 384-well microplate (Greiner) at 10,000 per well and cultured for 1 day in high-glucose-DMEM (FujiFilm Corp.—Wako Pure Chemical Industries, Ltd.) containing added 10% FBS (Thermo Scientific) and 1% Penicillin-Streptomycin (FujiFilm Corp.—Wako Pure Chemical Industries, Ltd.). After removing the medium, 30 μL of assay buffer (20 mM HEPES (Sigma-Aldrich Japan, KK.), Hank's balanced salt solution (Gibco), 0.1% BSA (Sigma-Aldrich Japan, KK.), 0.1% Pluronic F-127 (Invitrogen)) containing Calcium 4 dye (Molecular Device Corporation) and 2.5 mM probenecid (Sigma-Aldrich Japan, KK.) were added, and the mixture was incubated for 60 minutes. A 30 μL portion of assay buffer containing the test compound was added and reaction was initiated. Change in intracellular calcium ion concentration by the reaction was measured based on the fluorescence intensity ratio in terms of the fluorescence value with […], using FDSS7000 (Hamamatsu Photonics, K.K.). The test compound was dissolved in DMSO to 10 mM, and diluted with assay buffer to a final concentration of from 3×10^−11 M to 1×10^−5 M (DMSO final concentration of 0.1%). The EC50 value was determined from the fluorescence value with addition of the test compound at different concentrations, with the fluorescence value of the well with compound-free buffer added as 0%, and the fluorescence value of the well with 30 nM OX-A (Peptide Research Lab) as 100%.

hOX1R = hOX1R (Homo sapiens (Human), UniProt O43613); assay: Test Example 1-2: Evaluation of activating activity for OX1R (calcium flux, HEK293 with forced expression); type: cell-based; conditions: HEK293 cells expressing hOX1R; intracellular calcium; 30 nM OX-A as 100%; up to 1×10^−5 M
Method: as §1

[2] = system: orexin/ataxin-3 Tg/+ mice; assay: Test Example 4: Wake-promoting effect and cataplexy-free state elongation in orexin-deficient mice (EEG/EMG); type: in vivo; conditions: oral; for DREM latency: cut-off 4 hours
Method: The experimental animals used were orexin/ataxin-3 Tg/+ mice (hereunder referred to as “Tg mice”, Ham et al., Neuron, 30,345-54,2001) with a C57BL/6 genetic background. Electroencephalogram and electromyogram measuring electrodes were surgically embedded into 12-week-old mice (±2 weeks) under isoflurane anesthesia. The solvent (0 mg/kg) or a solution of a sample (compound of Example 1 dissolved in the solvent: 0.3, 1 or 3 mg/kg) was orally administered 30 to 15 minutes before lighting was turned off. The solvent used was a 0.1 moL/L hydrochloric acid solution containing 5% (v/v) DMSO and 5% (v/v) Kolliphor™ EL. The electroencephalogram and electromyogram were recorded for about 24 hours, from 1 hour before lighting was turned off. The mice were repeatedly used, with a washout period of 2 days or longer. The electroencephalogram and electromyogram data obtained for each mouse were used to assess the sleep stage every epoch (10 seconds), using sleep analysis software (SleepSign: Kissei Comtec Co., Ltd.), up to a maximum of 4 hours (cut-off value). For the purpose of this experiment, cataplexy-like symptoms were defined as REM sleep appearing immediately after wakefulness (direct transition from wake to REM sleep (DREM)) for a contiguous period of 4 epochs or longer. DREM in mice is an analog of cataplexy (Exp Neurol. 2009; 217:46-54). The time until initial sleep appeared after lighting out for each mouse (sleep for contiguous 8 epochs or longer, excluding DREM)(sleep onset latency) and the time until initial DREM appeared (DREM latency) were measured. The numbers of mice were 14 in the vehicle group and Example 1 compound-administered groups. The sleep onset latency and DREM latency in a vehicle control group and a compound-administered group were compared by a Dunnet-type multiple comparison test following survival time analysis in consideration of the number of experiments and use of the same individuals, with a significance level of 5% at both ends for each.

human OX2R (hOX2R) = human OX2R (hOX2R) (Homo sapiens (Human), UniProt O43614); assay: Test Example 1-1: Evaluation of activity for OX2R (calcium flux, HEK293 with forced expression); type: cell-based; conditions: HEK293 cells expressing hOX2R; intracellular calcium; 10 nM OX-A as 100%; up to 1×10^−7 M
Method: HEK293 (human embryonic kidney 293) cells with forced expression of human OX1R (hOX1R) or human OX2R (hOX2R) were seeded in a 384-well microplate (Greiner) at 10,000 per well and cultured for 1 day in high-glucose-DMEM (FujiFilm Corp.—Wako Pure Chemical Industries, Ltd.) containing added 10% FBS (Tenno Scientific) and 1% Penicillin-Streptomycin (FujiFilm Corp.—Wako Pure Chemical Industries, Ltd.). After removing the medium, 40 μL of assay buffer (20 mM HEPES (Sigma-Aldrich Japan, KK.), Hanks' balanced salt solution (Gibco), 0.1% BSA (Sigma-Aldrich Japan, KK.), 0.1% Pluronic F-127 (Invitrogen)) containing Calcium 4 dye (Molecular Device Corporation) and 2.5 mM probenecid (Sigma-Aldrich Japan, KK.) were added, and the plate was incubated for 60 minutes. After further adding 20 μL of assay buffer, 20 μL of assay buffer containing the test compound was added and reaction was initiated. Change in intracellular calcium ion concentration during the reaction was measured based on the fluorescence intensity ratio in terms of the fluorescence value with wavelength excitation at 480 nm and detection at 540 nm, using FDSS7000 (Hamamatsu Photonics, K.K.). The test compound was dissolved in DMSO to 10 mM, and diluted with assay buffer to a final concentration of from 3×10^−11 M to 1×10^−7 M (DMSO final concentration of 0.1%). […]

Sequence of hOX2R (O43614 whole entry): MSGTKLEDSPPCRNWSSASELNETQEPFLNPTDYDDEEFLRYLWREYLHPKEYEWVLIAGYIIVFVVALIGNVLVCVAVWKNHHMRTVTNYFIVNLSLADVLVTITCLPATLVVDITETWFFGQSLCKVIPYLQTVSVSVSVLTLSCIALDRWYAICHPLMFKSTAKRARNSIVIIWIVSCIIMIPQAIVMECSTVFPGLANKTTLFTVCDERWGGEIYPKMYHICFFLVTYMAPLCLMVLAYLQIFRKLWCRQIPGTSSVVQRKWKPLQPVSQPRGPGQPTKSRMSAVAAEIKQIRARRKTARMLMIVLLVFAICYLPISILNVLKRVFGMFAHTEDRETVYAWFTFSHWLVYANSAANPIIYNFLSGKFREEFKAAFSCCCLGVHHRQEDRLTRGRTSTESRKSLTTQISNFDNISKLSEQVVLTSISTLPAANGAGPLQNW
Sequence of hOX1R (O43613 whole entry): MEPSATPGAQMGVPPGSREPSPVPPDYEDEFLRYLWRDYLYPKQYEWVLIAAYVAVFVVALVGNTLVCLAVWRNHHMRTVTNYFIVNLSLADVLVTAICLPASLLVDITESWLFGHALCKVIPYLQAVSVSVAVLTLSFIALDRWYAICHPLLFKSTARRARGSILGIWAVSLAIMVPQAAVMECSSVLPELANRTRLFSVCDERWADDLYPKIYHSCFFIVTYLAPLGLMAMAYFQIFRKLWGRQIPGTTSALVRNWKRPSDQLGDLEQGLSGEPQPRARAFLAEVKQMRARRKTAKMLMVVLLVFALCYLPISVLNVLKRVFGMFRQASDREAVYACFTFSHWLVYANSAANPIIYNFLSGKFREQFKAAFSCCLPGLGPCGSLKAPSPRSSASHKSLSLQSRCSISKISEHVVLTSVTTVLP
Sequence of human OX2R (hOX2R) (O43614 whole entry): as the sequence (O43614 whole entry) above

CO[C@@H]1CN(c2ncc(F)cn2)CC[C@@H]1[C@@H]1C[C@H]2CC[C@@H](C1)N2[C@@H](C(N)=O)C1CC1 [Example 1, (R)-2-cyclopropyl-2-((1R,3S,5S)-3-((3S,4R)-1-(5-fluoropyrimidin-2-yl)-3-methoxypiperidin-4-yl)-8-azabicyclo[3.2.1]octan-8-yl)acetamide]
sleep onset latency ([1]; 1 mg/kg): 0.28 h
sleep onset latency ([1]; 3 mg/kg): 0.44 h
sleep onset latency ([1]; 10 mg/kg): 2.07 h
Spontaneous movement (% of Control) (Male C57BL/6NCrl mice): 865 % of Control
EC50 (hOX2R): 2.3 nM
EC50 (hOX1R): 4700 nM
sleep onset latency ([2]; 0.3 mg/kg): 0.31 h
DREM latency ([2]; 0.3 mg/kg): 1.50 h
sleep onset latency ([2]; 1 mg/kg): 0.64 h
DREM latency ([2]; 1 mg/kg): 2.26 h
sleep onset latency ([2]; 3 mg/kg): 2.42 h
DREM latency ([2]; 3 mg/kg): 4.00 h
EC50 (human OX2R (hOX2R)): 0.99 nM

C[C@H]1C[C@@H]([C@@H]2C[C@H]3CC[C@@H](C2)N3[C@@H](C(N)=O)C2CC2)CCN1c1ncc(F)cn1 [Example 4, (R)-2-cyclopropyl-2-((1R,3S,5S)-3-((2S, 4S)-1-(5-fluoropyrimidin-2-yl)-2-methylpiperidin-4-yl)-8-azabicyclo[3.2.1]octan-8-yl)acetamide]
EC50 (hOX2R): 4.4 nM
EC50 (hOX1R): 3900 nM

CCO[C@@H]1CN(c2ncc(Cl)cn2)CC[C@@H]1[C@@H]1C[C@H]2CC[C@@H](C1)N2[C@@H](C(N)=O)C1CC1 [Example 3, (R)-2-((1R,3S,5S)-3-((3S,4R)-1-(5-chloropyrimidin-2-yl)-3-ethoxypiperidin-4-yl)-8-azabicyclo[3.2.1]octan-8-yl)-2-cyclopropyl acetamide]
EC50 (hOX2R): 4.3 nM
EC50 (hOX1R): 1400 nM

CO[C@@H]1CN(c2ncc(F)cn2)CC[C@@H]1[C@@H]1C[C@H]2CC[C@@H](C1)N2[C@@H](C(N)=O)C(C)C [Example 2, (R)-2-((1R,3S,5S)-3-((3S,4R)-1-(5-fluoropyrimidin-2-yl)-3-methoxypiperidin-4-yl)-8-azabicyclo[3.2.1]octan-8-yl)-3-methylbutaneamide]
Spontaneous movement (% of Control) (Male C57BL/6NCrl mice): 253 % of Control
